The values that follow come from patent publication US20040248887A1, “Inhibitors of cathepsin S” (IRM LLC, priority 2003, published 2004).

One may read the Ki as the dissociation constant of the complex between target and ligand, obtained from inhibition or displacement.

The target of this test is Cathepsin S (Homo sapiens, UniProt P25774). As to the kind of experiment: Cathepsin S inhibition, fluorogenic peptide substrate kinetic assay. As to conditions: Table II; Cathepsin S inhibition constant, pH5.5; read-out: Ki Cat. S. The format is biochemical. An excerpt: “Inhibition constant”, Ki, is the dissociation constant of the enzyme-inhibitor complex, or the reciprocal of the binding affinity of the inhibitor to the enzyme. […] The inhibited rates are then fit by nonlinear regression to the following equation: [formula]
Cathepsin S, sequence (P25774 115-331, species assumed): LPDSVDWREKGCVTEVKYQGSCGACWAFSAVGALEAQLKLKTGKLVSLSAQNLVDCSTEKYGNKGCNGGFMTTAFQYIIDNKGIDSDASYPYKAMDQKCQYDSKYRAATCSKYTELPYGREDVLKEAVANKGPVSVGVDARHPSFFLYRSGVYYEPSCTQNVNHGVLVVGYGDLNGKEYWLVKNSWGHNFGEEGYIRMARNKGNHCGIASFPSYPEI
where vo is the initial rate of substrate processing in the absence of inhibitor, v; is the initial rate of substrate processing at a concentration [I] of inhibitor, Km is the steady state Michaelis constant (Fersht, A. Structure and Mechanism in Protein Science. New York, W.H. Freeman and Company, 1999), and [S] is the concentration of competitive substrate.
The assumption being made for the classical inhibition described above is that the free inhibitor concentration is equal to the total inhibitor concentration.
The inhibition constant, Ki, can be determined from the apparent inhibition constant, Ki^app, for competitive inhibitors by using the following relationship: [formula]
The optimal substrate for cathepsin S, acetyl-histidine-proline-valine-lysine-amino carbamoyl coumarin, was identified from screening a combinatorial library of fluorogenic peptide substrates (Harris, J. L., B. J. Backes, et al., Proc Natl Acad Sci USA 2000, 97(14), 7754-9). Kinetic measurements are performed in a total reaction volume of 30 μl in 384-well microtiter plates. […] The reactions are initiated by adding the substrate, acetyl-histidine-proline-valine-lysine-amino carbamoyl coumarin, to a final concentration of 50 μM. The rate of substrate hydrolysis is measured by monitoring the increase in fluorescence at an excitation wavelength of 380 nm and an emission wavelength of 450 nm that results from cleavage of the aniline bond in the substrate by the enzyme. The apparent inhibition constants for the compounds are determined from the enzyme progress curves (Kuzmic, P., K. C. Elrod, et al., Anal Biochem 2000, 286(1), 45-50) and are then used to calculate the inhibition constants for competitive inhibitors.

Where only a bound is given, the exact number is not on record here.

For `C[C@@H](C(=O)N[C@@H](CC1CCCCC1)C(=O)NCCN1CCc2cc(F)ccc21)c1ccccc1` [Compound 70, N-{2-cyclohexyl-1-(S)-[2-(5-fluoro-2,3-dihydro-indol-1-yl)-ethylcarbamoyl]-ethyl}-2-(R)-phenyl-propionamide], the Ki is less than 100 nM.

Turning to `C[C@@H](CN1CC(C)(C)c2cc(F)ccc21)NC(=O)[C@H](CC1CCCCC1)NC(=O)OC1CCOCC1` [Compound 215, (S,S)-{2-Cyclohexyl-1-[2-(5-fluoro-3,3-dimethyl-2,3-dihydro-indol-1-yl)-1-methyl-ethylcarbamoyl]-ethyl}-carbamic acid tetrahydro-pyran-4-yl ester], the Ki is less than 100 nM.

As to `C[C@@H](CNc1cccc(C(=O)N(C)C)c1)NC(=O)[C@H](CC1CCCCC1)NC(=O)c1ccc(-c2cccc(F)c2)o1` [Compound 120, 5-(3-Fluoro-phenyl)-furan-2-carboxylic acid {2-cyclohexyl-1-(S)-[2-(3-dimethylcarbamoyl-phenylamino)-1-(S)-methyl-ethylcarbamoyl]-ethyl}-amide], the Ki was less than 100 nM.

As for `C[C@@H](CNc1ccc(C(=N)N)cc1)NC(=O)C(NC(=O)c1ccc(OCc2ccccc2)cc1)c1ccc(Cl)cc1Cl` (mixture of isomers) [Compound 175, 4-Benzyloxy-N-(R,S)-{[2-(4-amidinophenylamino)-1-(S)-methyl-ethylcarbamoyl]-(2,4-dichloro-phenyl)-methyl}-benzamide], the Ki is less than 1000 nM.

Take `O=C(N[C@@H](CC1CCCCC1)C(=O)NCCN1CCc2cc(F)ccc21)c1ccc(-c2ccccc2)o1` [Compound 75, 5-Phenyl-furan-2-carboxylic acid (S)-{2-cyclohexyl-1-[2-(5-fluoro-2,3-dihydro-indol-1-yl)-ethylcarbamoyl]-ethyl}-amide]: the Ki is less than 100 nM.

For the compound `COc1ccc(NCCNC(=O)[C@H]2CCCC[C@H]2NC(=O)c2cccc(C)c2)cc1` (relative stereo) [Compound 1, N-{cis-2-[2-(4-Methoxy-phenylamino)-ethylcarbamoyl]-cyclohexyl}-3-methyl-benzamide], the Ki was less than 10000 nM.

Take `C[C@@H](CNc1ccc(SC(F)(F)F)cc1)NC(=O)[C@H](CC1CCCCC1)NC(=O)c1ccc(-c2cccc(F)c2)o1` [Compound 119, 5-(3-Fluoro-phenyl)-furan-2-carboxylic acid {2-cyclohexyl-1-(S)-[1-(S)-methyl-2-(4-trifluoromethylsulfanyl-phenylamino)-ethylcarbamoyl]-ethyl}-amide]: the Ki is less than 100 nM.

`O=C(N[C@@H](CC1CCCCC1)C(=O)NCCN1CCc2cc(F)ccc21)c1ccoc1` [Compound 13, Furan-3-carboxylic acid (S)-{2-cyclohexyl-1-[2-(5-fluoro-2,3-dihydro-indol-1-yl)-ethylcarbamoyl]-ethyl}-amide]: the Ki is less than 100 nM.

Regarding `C[C@@H](CNc1cccc(C(N)=O)c1)NC(=O)[C@H](CC1CCCCC1)NC(=O)c1ccc(-c2cccc(F)c2)o1` [Compound 98, 5-(3-Fluoro-phenyl)-furan-2-carboxylic acid {1-(S)-[2-(3-carbamoyl-phenylamino)-1-(S)-methyl-ethylcarbamoyl]-2-cyclohexyl-ethyl}-amide], the Ki is less than 100 nM.

Take `COc1c(C)cc(NC[C@H](C)NC(=O)[C@H](CC2CCCCC2)NC(=O)c2ccc(-c3cccc(F)c3)o2)cc1C` [Compound 115, 5-(3-Fluoro-phenyl)-furan-2-carboxylic acid {2-cyclohexyl-1-(S)-[2-(4-methoxy-3,5-dimethyl-phenylamino)-1-(S)-methyl-ethylcarbamoyl]-ethyl}-amide]: the Ki is less than 100 nM.

`O=C(N[C@@H](CC1CCCCC1)C(=O)NCCN1CCc2cc(F)ccc21)C1CCN(S(=O)(=O)c2ccccc2)CC1` [Compound 58, 1-Benzenesulfonyl-piperidine-4-carboxylic acid (S)-{2-cyclohexyl-1-[2-(5-fluoro-2,3-dihydro-indol-1-yl)-ethylcarbamoyl]-ethyl}-amide]: the Ki was less than 1000 nM.

For `COc1cccc(C(=O)N[C@@H](CC(C)(C)C)C(=O)N[C@@H](CO)CN2CCc3cc(F)ccc32)c1` [Compound 156, N-{1-(S)-[2-(5-Fluoro-2,3-dihydro-indol-1-yl)-1-(R)-hydroxymethyl-ethylcarbamoyl]-3,3-dimethyl-butyl}-3-methoxy-benzamide], the Ki was less than 100 nM.

`O=C(NC(C(=O)NC(CO)CN1CCc2cc(F)ccc21)c1ccc(Cl)cc1Cl)c1ccco1` [Compound 212, N-(S)-((3-(5-fluoroindolin-1-yl)-1-hydroxypropan-2-(R)-ylcarbamoyl)(2,4-dichlorophenyl)methyl) furan-2-carboxamide]: the Ki was less than 1000 nM.

For `Cc1nc(C)c(S(=O)(=O)N[C@@H](CC2CCCCC2)C(=O)N[C@@H](C)CN2CCc3cc(F)ccc32)s1` [Compound 210, (S,S)-3-Cyclohexyl-2-(2,4-dimethyl-thiazole-5-sulfonylamino)-N-[2-(5-fluoro-2,3-dihydro-indol-1-yl)-1-methyl-ethyl]-propionamide], the Ki was less than 100 nM.

As to `C[C@@H](CN1CCc2cc(F)ccc21)NC(=O)[C@H](CC(C)(C)C)NC(=O)OCc1ccccc1` [Compound 176, {1-(S)-[2-(5-Fluoro-2,3-dihydro-indol-1-yl)-1-(S)-methyl-ethylcarbamoyl]-3,3-dimethyl-butyl}-carbamic acid benzyl ester], the Ki is less than 100 nM.

On to `O=C(NCCN1CCc2cc(F)ccc21)[C@H](CC1CCCCC1)NS(=O)(=O)c1cc(Cl)c(Cl)s1` [Compound 258, (S)-3-Cyclohexyl-2-(4,5-dichloro-thiophene-2-sulfonylamino)-N-[2-(5-fluoro-2,3-dihydro-indol-1-yl)-ethyl]-propionamide], for which the Ki is less than 1000 nM.

In the case of `O=C(N[C@@H](Cc1cccc(Cl)c1)C(=O)NCCN1CCc2cc(F)ccc21)c1ccc(-c2cccc(C(F)(F)F)c2)o1` [Compound 196, N-((S)-1-(2-(5-fluoroindolin-1-yl)ethylcarbamoyl)-2-(3-chlorophenyl)ethyl)-5-(3-(trifluoromethyl)phenyl)furan-2-carboxamide], the Ki was less than 1000 nM.

As to `O=C(NCCN1CCc2cc(F)ccc21)[C@H](CC1CCCCC1)NS(=O)(=O)c1ccc(S(=O)(=O)c2ccccc2)s1` [Compound 256, (S)-2-(5-Benzenesulfonyl-thiophene-2-sulfonylamino)-3-cyclohexyl-N-[2-(5-fluoro-2,3-dihydro-indol-1-yl)-ethyl]-propionamide], the Ki is less than 1000 nM.

For `CC(C)(C)C[C@H](NC(=O)OC(C)(C)C)C(=O)N[C@@H](CCS(C)(=O)=O)CN1CCc2cc(F)ccc21` [Compound 157, {1-(S)-[1-(S)-(5-Fluoro-2,3-dihydro-indol-1-ylmethyl)-3-methanesulfonyl-propylcarbamoyl]-3,3-dimethyl-butyl}-carbamic acid tert-butyl ester], the Ki is less than 100 nM.

Regarding `COc1cccc(C(=O)N[C@@H](CC2CCCCC2)C(=O)N[C@@H](COCc2ccccc2)CN2CCc3cc(F)ccc32)c1` [Compound 149, N-{1-(S)-[1-(R)-Benzyloxymethyl-2-(5-fluoro-2,3-dihydro-indol-1-yl)-ethylcarbamoyl]-2-cyclohexyl-ethyl}-3-methoxy-benzamide], the Ki is less than 100 nM.

As for `O=C(NCCN1CCc2cc(F)ccc21)[C@H](CC1CCCCC1)NS(=O)(=O)c1ccc(-c2cnco2)cc1` [Compound 246, (S)-3-Cyclohexyl-N-[2-(5-fluoro-2,3-dihydro-indol-1-yl)-ethyl]-2-(4-oxazol-5-yl-benzenesulfonylamino)-propionamide], the Ki was less than 100 nM.

`COc1ccc(NC[C@H](C)NC(=O)[C@H](CC(C)(C)C)NC(=O)c2ccc(-c3cccc(F)c3)o2)cc1` [Compound 132, 5-(3-Fluoro-phenyl)-furan-2-carboxylic acid {1-(S)-[2-(4-methoxy-phenylamino)-1-(S)-methyl-ethylcarbamoyl]-3,3-dimethyl-butyl}-amide]: the Ki is less than 100 nM.

In the case of `C[C@@H](CNc1ccc(OC(F)(F)F)cc1)NC(=O)[C@H](CC1CCCCC1)NC(=O)OC1CCOCC1` [Compound 184, (S,S)-{2-Cyclohexyl-1-[1-methyl-2-(4-trifluoromethoxy-phenylamino)-ethylcarbamoyl]-ethyl}-carbamic acid tetrahydro-pyran-4-yl ester], the Ki is less than 100 nM.

As for `O=C(N[C@@H](CC1CCCCC1)C(=O)NCCN1CCc2cc(F)ccc21)c1ccco1` [Compound 9, Furan-2-carboxylic acid (S)-{2-cyclohexyl-1-[2-(5-fluoro-2,3-dihydro-indol-1-yl)-ethylcarbamoyl]-ethyl}-amide], the Ki is less than 100 nM.

Consider `O=C(NCCN1CCc2cc(F)ccc21)[C@H](CC1CCCCC1)NS(=O)(=O)c1ccc(OC(F)F)cc1` [Compound 240, (S)-3-Cyclohexyl-2-(4-difluoromethoxy-benzenesulfonylamino)-N-[2-(5-fluoro-2,3-dihydro-indol-1-yl)-ethyl]-propionamide], for which the Ki was less than 1000 nM.
